In PMC4467794 (Cell, 2015):

Biological target: T1, ALAS2 (apoALAS2) (Homo sapiens, UniProt P22557)
T1 sequence (P22557 50-587): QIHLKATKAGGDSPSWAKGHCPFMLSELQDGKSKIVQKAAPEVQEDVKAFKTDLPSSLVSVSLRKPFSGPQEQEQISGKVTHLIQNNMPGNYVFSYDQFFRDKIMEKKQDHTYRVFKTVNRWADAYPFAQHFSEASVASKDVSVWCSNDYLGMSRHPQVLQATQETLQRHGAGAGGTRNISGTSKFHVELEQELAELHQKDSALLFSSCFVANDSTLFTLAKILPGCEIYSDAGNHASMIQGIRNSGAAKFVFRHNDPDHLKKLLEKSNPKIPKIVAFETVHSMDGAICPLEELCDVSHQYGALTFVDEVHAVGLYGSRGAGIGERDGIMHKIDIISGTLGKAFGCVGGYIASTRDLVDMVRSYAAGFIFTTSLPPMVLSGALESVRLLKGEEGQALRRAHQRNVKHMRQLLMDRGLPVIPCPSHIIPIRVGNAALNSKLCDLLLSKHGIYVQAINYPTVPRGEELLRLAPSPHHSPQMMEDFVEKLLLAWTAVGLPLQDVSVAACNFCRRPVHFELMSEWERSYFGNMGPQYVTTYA
Assay: PLP reactivation of apoenzyme, NAD-coupled ALAS assay
Format: biochemical
Settings: apoALAS2 5 µM, PLP 50 µM, pH 7.6, 30 °C, 5 mM MgCl2, 130 mM KCl, 0.75 mg/ml BSA; covalent

Cc1ncc(COP(=O)(O)O)c(C=O)c1O [pyridoxal phosphate]
PLP reactivation of apoenzyme, NAD-coupled ALAS assay: apoALAS2 activation by PLP in vitro.
